Experimental data as given in patent publication US8653036B2, “Methods of treating retinitis pigmentosa” (Mimetogen Pharmaceuticals Inc., priority 2009, dated 2014).

B1: NT-3: Neurotrophin-3 (an agonist of TrkC and p75 receptors) (protein, UniProt P20783 139-257, looked up)
Neurotrophin-3: YAEHKSHRGEYSVCDSESLWVTDKSSAIDIRGHQVTVLGEIKTGNSPVKQYFYETRCKEARPVKNGCRGIDDKHWNSQCKTSQTYVRALTSENNKLVGWRWIRIDTSCVCALSRKIGRT

Legend:
[1] = test system: APRE19 cells; assay: Protection of retinal pigmented epithelial cells from oxidative-stress-induced apoptosis (TNFα and H2O2), nuclei stained with Hoechst reagent; assay type: cell-based; details: stressed APRE19 cells, TNFα and H2O2, sixteen hours
Protocol: Neurotrophic Protection of Retinal Pigmented Epithelial Cells from Degeneration Due to Oxidative Stress
The purpose of this study was to investigate the pharmacological concept of neurotrophic prevention of oxidative-stress-induced degeneration of retinal pigmented epithelial (RPE) cells. The aim of this study was to validate specific compounds as therapy for retinitis pigmentosa.
APRE19 cells were cultured in complete media, followed by eight hours of serum starvation. Then apoptosis was induced by exposure to oxidative stress (TNFα and H2O2), in the presence or absence of test compounds or controls for sixteen hours. Apoptosis was quantified as the percentage of dead cells over total live+dead cells by counting nuclei stained with Hoechst reagent.
Test agents included nerve growth factor (an agonist of TrkA and p75 receptors), Neurotrophin-3 (an agonist of TrkC and p75 receptors), and compounds D3, 3Ak, 3Ae and 3Aa.

[2] = test system: mouse model of retinal degeneration; assay: Mouse model of retinal degeneration: ERG (scotopic and photopic) and number of Outer Nuclear Layer rows; assay type: in vivo; details: drug treated versus control treated animals
Protocol: Additional experiments in a mouse model of retinal degeneration were conducted.

[3] = test system: APRE19 cells; details: cited from earlier work

| Molecule | protection of apoptosis (in words) [1] | drug effect on ERG (scotopic and photopic) and number of Outer Nuclear Layer rows versus control [2] | protection of stressed APRE19 cells by neurotrophins (published) [3] |
| --- | --- | --- | --- |
| CC[C@H](C)[C@@H]1NC(=O)c2cc(N)ccc2OCc2ccc(C(N)=O)cc2NC(=O)[C@H](CCCCN)NC1=O [Compound 3Aa] | protection is not dose dependent and is less than that seen with compounds D3, 3Ak and 3Ae | did not show a drug effect that was statistically significant from control |  |
| CC[C@H](C)[C@@H]1NC(=O)c2cc(N)ccc2OCc2ccc(C(N)=O)cc2NC(=O)[C@H](CCCNC(=N)N)NC1=O [Compound 3Ae] | quantitative and significant protection of apoptosis, in a dose dependent manner |  |  |
| N=C(N)NCCC[C@@H]1NC(=O)c2cc(N)ccc2OCc2ccc(C(N)=O)cc2NC(=O)CNC1=O [Compound 3Ak] | quantitative and significant protection of apoptosis, in a dose dependent manner |  |  |
| NCCCC[C@@H]1NC(=O)[C@H](CCC(=O)O)NC(=O)c2cc([N+](=O)[O-])ccc2OCCC(C(=O)NCC(=O)O)NC1=O (stereo partly shown) [Compound D3] | quantitative and significant protection of apoptosis, in a dose dependent manner |  |  |
| NGF: nerve growth factor (an agonist of TrkA and p75 receptors) |  |  | Protection of stressed APRE19 cells |
| B1 |  |  | Protection of stressed APRE19 cells |
